Data as given in publication PMC7501296, “Rapid and direct control of target protein levels with VHL-recruiting dTAG molecules” (Nature Communications, 2020).

Tests used:
[1] = tested on: EWS502 FKBP12^F36V-EWS/FLI; EWS/FLI^−/− cells; test: Synergy assessment: antiproliferation of EWS502 FKBP12F36V-EWS/FLI; EWS/FLI-/- cells co-treated with dTAGV-1 and dBET6, 72 h; assay type: cell-based
Procedure: Cell viability was assayed in 2D-adherent or ultra-low adherent 3D-spheroids using CellTiter-Glo (Promega)[6],[15]. Luminescence was measured on an Envision 2104 plate reader (PerkinElmer) and Fluostar Omega Reader (BMG Labtech) and data was analyzed using GraphPad PRISM v8. Synergy assessments were performed using CellTiter-Glo (Promega) with the following modifications to the protocol described in the ref. [34]. In brief, EWS502 cells were plated at 1000 cells per well in 50 µL of appropriate media in 384-well white culture plates (Corning) allowed to adhere overnight, and 100 nL of compounds were added using a Janus Workstation pin tool (PerkinElmer) for 72 h. Cell viability was measured by addition of 10 µL of CellTiter-glo (Promega), followed by incubation for 15 minutes at room temperature. Luminescence was measured on an Envision 2104 plate reader (PerkinElmer) and data was analyzed using GraphPad PRISM v8.

[2] = Pharmacokinetic evaluation in mice; assay type: in vivo, C57BL/6J male mice
Source text: For IP injections, dTAG-13 and dTAG^V-1 were formulated by dissolving into DMSO and then diluting with 20% solutol (Sigma): 0.9% sterile saline (Moltox) (w:v) with the final formulation containing 5% DMSO. […] Formulations were stable at room temperature for 7 days. For IV injections, dTAG-13 and dTAG^V-1 were formulated by dissolving into DMSO and then diluting with 5% solutol (Sigma): 0.9% sterile saline (Moltox) (w:v) with the final formulation containing 5% DMSO. All procedures for PK studies were compliant with ethical regulations for animal testing and research, and were approved by and performed in accordance with standards of the Institute Animal Care and Use Committee (IACUC) at Scripps Florida. Housing conditions for mice at Scripps Florida were as follows: lights on = 7 AM, lights off = 7 PM, average ambient temperature = 72 °F, and average humidity = 45%. PK was assessed in 8-week-old C57BL/6J male mice (Jackson Laboratory, #000664) with blood collected at 0.08, 0.25, 0.5, 1, 2, 4, 6, and 8 h (2 mg kg^−1 dTAG-13 intravenous (IV) tail vein, 10 mg kg^−1 dTAG-13 intraperitoneal (IP), and 2 mg kg^−1 dTAG^V-1 IV tail vein administrations) and 0.25, 0.5, 1, 2, 4, 6, 8, 24 and 48 h (2 mg kg^−1 dTAG^V-1 IP and 10 mg kg^−1 dTAG^V-1 IP administrations). Plasma was generated by centrifugation and plasma concentrations were determined by LC-MS/MS following the mass transition 49600à340 AMU. PK parameters were calculated using Phoenix WinNonlin to determine peak plasma concentration (Cmax), oral bioavailability (%F), exposure (AUC), half-life (t1/2), clearance (CL), and volume of distribution (Vd).

[3] = intraperitoneal administration at 10 mg kg^−1

Structure (SMILES): Cc1sc2c(c1C)C(c1ccc(Cl)cc1)=N[C@@H](CC(=O)NCCCCCCCCNC(=O)COc1cccc3c1C(=O)N(C1CCC(=O)NC1=O)C3=O)c1nnc(C)n1-2 (stereo partly shown) [dBET6]
- Average DMSO-normalized ratio used for CI calculation ([1]; 1 nM dBET6 + 19.5 nM dTAGV-1): 0.9811
- Average DMSO-normalized ratio used for CI calculation ([1]; 1 nM dBET6 + 78 nM dTAGV-1): 1.134
- Average DMSO-normalized ratio used for CI calculation ([1]; 1 nM dBET6 + 312.5 nM dTAGV-1): 1.111
- Average DMSO-normalized ratio used for CI calculation ([1]; 1 nM dBET6 + 1250 nM dTAGV-1): 0.8948
- Average DMSO-normalized ratio used for CI calculation ([1]; 1 nM dBET6 + 5000 nM dTAGV-1): 0.8015
- Average DMSO-normalized ratio used for CI calculation ([1]; 1 nM dBET6 alone): 0.8411
- Average DMSO-normalized ratio used for CI calculation ([1]; 4 nM dBET6 + 19.5 nM dTAGV-1): 0.9809
- Average DMSO-normalized ratio used for CI calculation ([1]; 4 nM dBET6 + 78 nM dTAGV-1): 1.057
- Average DMSO-normalized ratio used for CI calculation ([1]; 4 nM dBET6 + 312.5 nM dTAGV-1): 1.0595
- Average DMSO-normalized ratio used for CI calculation ([1]; 4 nM dBET6 + 1250 nM dTAGV-1): 0.7491
- Average DMSO-normalized ratio used for CI calculation ([1]; 4 nM dBET6 + 5000 nM dTAGV-1): 0.4793
- Average DMSO-normalized ratio used for CI calculation ([1]; 4 nM dBET6 alone): 0.8957
- Average DMSO-normalized ratio used for CI calculation ([1]; 15.6 nM dBET6 + 19.5 nM dTAGV-1): 0.798
- Average DMSO-normalized ratio used for CI calculation ([1]; 15.6 nM dBET6 + 78 nM dTAGV-1): 0.8317
- Average DMSO-normalized ratio used for CI calculation ([1]; 15.6 nM dBET6 + 312.5 nM dTAGV-1): 0.7228
- Average DMSO-normalized ratio used for CI calculation ([1]; 15.6 nM dBET6 + 1250 nM dTAGV-1): 0.4425
- Average DMSO-normalized ratio used for CI calculation ([1]; 15.6 nM dBET6 + 5000 nM dTAGV-1): 0.279
- Average DMSO-normalized ratio used for CI calculation ([1]; 15.6 nM dBET6 alone): 0.7797
- Average DMSO-normalized ratio used for CI calculation ([1]; 62.5 nM dBET6 + 19.5 nM dTAGV-1): 0.5057
- Average DMSO-normalized ratio used for CI calculation ([1]; 62.5 nM dBET6 + 78 nM dTAGV-1): 0.5414
- Average DMSO-normalized ratio used for CI calculation ([1]; 62.5 nM dBET6 + 312.5 nM dTAGV-1): 0.4908
- Average DMSO-normalized ratio used for CI calculation ([1]; 62.5 nM dBET6 + 1250 nM dTAGV-1): 0.3106
- Average DMSO-normalized ratio used for CI calculation ([1]; 62.5 nM dBET6 + 5000 nM dTAGV-1): 0.2615
- Average DMSO-normalized ratio used for CI calculation ([1]; 62.5 nM dBET6 alone): 0.5245
- Average DMSO-normalized ratio used for CI calculation ([1]; 250 nM dBET6 + 19.5 nM dTAGV-1): 0.3576
- Average DMSO-normalized ratio used for CI calculation ([1]; 250 nM dBET6 + 78 nM dTAGV-1): 0.3678
- Average DMSO-normalized ratio used for CI calculation ([1]; 250 nM dBET6 + 312.5 nM dTAGV-1): 0.3326
- Average DMSO-normalized ratio used for CI calculation ([1]; 250 nM dBET6 + 1250 nM dTAGV-1): 0.2968
- Average DMSO-normalized ratio used for CI calculation ([1]; 250 nM dBET6 + 5000 nM dTAGV-1): 0.2503
- Average DMSO-normalized ratio used for CI calculation ([1]; 250 nM dBET6 alone): 0.3398
- DMSO-normalized antiproliferation, Mean ([1]; co-treatment 19.5 nM dTAGV-1 (log10[M] -7.70927) + 1 nM dBET6 (log10[M] -9.0103)): 98.11
- DMSO-normalized antiproliferation, Mean ([1]; co-treatment 19.5 nM dTAGV-1 (log10[M] -7.70927) + 4 nM dBET6 (log10[M] -8.40824)): 98.09
- DMSO-normalized antiproliferation, Mean ([1]; co-treatment 19.5 nM dTAGV-1 (log10[M] -7.70927) + 15.6 nM dBET6 (log10[M] -7.80618)): 79.8
- DMSO-normalized antiproliferation, Mean ([1]; co-treatment 19.5 nM dTAGV-1 (log10[M] -7.70927) + 62.5 nM dBET6 (log10[M] -7.20412)): 50.57
- DMSO-normalized antiproliferation, Mean ([1]; co-treatment 19.5 nM dTAGV-1 (log10[M] -7.70927) + 250 nM dBET6 (log10[M] -6.60206)): 35.76
- DMSO-normalized antiproliferation, Mean ([1]; co-treatment 78 nM dTAGV-1 (log10[M] -7.10721) + 1 nM dBET6 (log10[M] -9.0103)): 113.36
- DMSO-normalized antiproliferation, Mean ([1]; co-treatment 78 nM dTAGV-1 (log10[M] -7.10721) + 4 nM dBET6 (log10[M] -8.40824)): 105.67
- DMSO-normalized antiproliferation, Mean ([1]; co-treatment 78 nM dTAGV-1 (log10[M] -7.10721) + 15.6 nM dBET6 (log10[M] -7.80618)): 83.17
- DMSO-normalized antiproliferation, Mean ([1]; co-treatment 78 nM dTAGV-1 (log10[M] -7.10721) + 62.5 nM dBET6 (log10[M] -7.20412)): 54.14
- DMSO-normalized antiproliferation, Mean ([1]; co-treatment 78 nM dTAGV-1 (log10[M] -7.10721) + 250 nM dBET6 (log10[M] -6.60206)): 36.78
- DMSO-normalized antiproliferation, Mean ([1]; co-treatment 312.5 nM dTAGV-1 (log10[M] -6.50515) + 1 nM dBET6 (log10[M] -9.0103)): 111.14
- DMSO-normalized antiproliferation, Mean ([1]; co-treatment 312.5 nM dTAGV-1 (log10[M] -6.50515) + 4 nM dBET6 (log10[M] -8.40824)): 105.95
- DMSO-normalized antiproliferation, Mean ([1]; co-treatment 312.5 nM dTAGV-1 (log10[M] -6.50515) + 15.6 nM dBET6 (log10[M] -7.80618)): 72.28
- DMSO-normalized antiproliferation, Mean ([1]; co-treatment 312.5 nM dTAGV-1 (log10[M] -6.50515) + 62.5 nM dBET6 (log10[M] -7.20412)): 49.08
- DMSO-normalized antiproliferation, Mean ([1]; co-treatment 312.5 nM dTAGV-1 (log10[M] -6.50515) + 250 nM dBET6 (log10[M] -6.60206)): 33.26
- DMSO-normalized antiproliferation, Mean ([1]; co-treatment 1250 nM dTAGV-1 (log10[M] -5.90309) + 1 nM dBET6 (log10[M] -9.0103)): 89.48
- DMSO-normalized antiproliferation, Mean ([1]; co-treatment 1250 nM dTAGV-1 (log10[M] -5.90309) + 4 nM dBET6 (log10[M] -8.40824)): 74.91
- DMSO-normalized antiproliferation, Mean ([1]; co-treatment 1250 nM dTAGV-1 (log10[M] -5.90309) + 15.6 nM dBET6 (log10[M] -7.80618)): 44.25
- DMSO-normalized antiproliferation, Mean ([1]; co-treatment 1250 nM dTAGV-1 (log10[M] -5.90309) + 62.5 nM dBET6 (log10[M] -7.20412)): 31.06
- DMSO-normalized antiproliferation, Mean ([1]; co-treatment 1250 nM dTAGV-1 (log10[M] -5.90309) + 250 nM dBET6 (log10[M] -6.60206)): 29.68
- DMSO-normalized antiproliferation, Mean ([1]; co-treatment 5000 nM dTAGV-1 (log10[M] -5.30103) + 1 nM dBET6 (log10[M] -9.0103)): 80.15
- DMSO-normalized antiproliferation, Mean ([1]; co-treatment 5000 nM dTAGV-1 (log10[M] -5.30103) + 4 nM dBET6 (log10[M] -8.40824)): 47.93
- DMSO-normalized antiproliferation, Mean ([1]; co-treatment 5000 nM dTAGV-1 (log10[M] -5.30103) + 15.6 nM dBET6 (log10[M] -7.80618)): 27.9
- DMSO-normalized antiproliferation, Mean ([1]; co-treatment 5000 nM dTAGV-1 (log10[M] -5.30103) + 62.5 nM dBET6 (log10[M] -7.20412)): 26.15
- DMSO-normalized antiproliferation, Mean ([1]; co-treatment 5000 nM dTAGV-1 (log10[M] -5.30103) + 250 nM dBET6 (log10[M] -6.60206)): 25.03
- Synergy with VHL-mediated EWS/FLI degradation (dTAGV-1) ([1]; combination index): synergized strongly
- DMSO-normalized antiproliferation, Mean ([1]; dBET6 log10[M] -6.60206, with DMSO (no dTAGV-1)): 33.98
- DMSO-normalized antiproliferation, Mean ([1]; dBET6 log10[M] -7.20412, with DMSO (no dTAGV-1)): 52.45
- DMSO-normalized antiproliferation, Mean ([1]; dBET6 log10[M] -7.80618, with DMSO (no dTAGV-1)): 77.97
- DMSO-normalized antiproliferation, Mean ([1]; dBET6 log10[M] -8.40824, with DMSO (no dTAGV-1)): 89.57
- DMSO-normalized antiproliferation, Mean ([1]; dBET6 log10[M] -9.0103, with DMSO (no dTAGV-1)): 84.11

Structure (SMILES): CC[C@H](C(=O)N1CCCC[C@H]1C(=O)O[C@H](CCc1ccc(OC)c(OC)c1)c1ccccc1OCC(=O)NCCCCCCOc1cccc2c1C(=O)N(C1CCC(=O)NC1=O)C2=O)c1cc(OC)c(OC)c(OC)c1 (stereo partly shown) [dTAG-13]
- AUCinf ([2]; IP, 10 mg kg-1): 6140 ng·h/mL
- AUClast ([2]; IP, 10 mg kg-1): 5619 ng·h/mL
- CL ([2]; IP, 10 mg kg-1): 28 mL/min/kg
- Cmax ([2]; IP, 10 mg kg-1): 1263 ng/mL
- T1/2 ([2]; IP, 10 mg kg-1): 2.41 h
- Tmax ([2]; IP, 10 mg kg-1): 2.00 h
- AUCinf ([2]; IV, 2 mg kg-1): 1253 ng·h/mL
- AUClast ([2]; IV, 2 mg kg-1): 1242 ng·h/mL
- CL ([2]; IV, 2 mg kg-1): 32.5 mL/min/kg
- Cmax ([2]; IV, 2 mg kg-1): 2373 ng/mL
- T1/2 ([2]; IV, 2 mg kg-1): 1.46 h
- Tmax ([2]; IV, 2 mg kg-1): 0.08 h
- Vss ([2]; IV, 2 mg kg-1): 1.8 L/kg
- exposure (AUCinf) [2, 3]: 6140 ng·h/mL
- half-life (T1/2) [2, 3]: 2.41 h
